From patent publication US11708562B2, “Differentiation of human embryonic stem cells” (Janssen Biotech, Inc., priority 2006, dated 2023)

System: H9P33, H9P44 and H9P48 cells
Test: Microarray analysis of definitive endoderm on MEFs vs MATRIGEL +/- Wnt-3A (Table VI)
Details: log format
Procedure: Controls for each group included cells plated on […]-coated dishes and cultured in MEF-conditioned medium or cells plated on MEFs and cultured in ES medium. All groups contained three biological replicates and each biological replicate was repeated on two separate gene chips.
Sample preparation, hybridization, and image analysis were performed according to the Affymetrix Human Genome U133 Plus 2.0 Array. Following normalization and a log transformation, data analysis was performed using OmniViz® software (MA) and […] (VizXLabs, WA). Significant differences in gene expression between the samples were evaluated using analysis of variance and an F-test with adjusted P-value (Benjamini and Hochberg correction) of ≤0.05. Only genes with a present call in at least one group were included in the analysis.

[1] = DE treatment in low serum + AA on MATRIGEL
[2] = DE treatment in low serum + AA on MEFS

Activin A: a member of the TGFβ superfamily; growth factor (R&D Systems) used to differentiate human embryonic stem cells
mean normalized intensity: Homo sapiens chorionic somatomammotropin hormone 2 (CSH2), transcript variant 1, mRNA. [1]: 1.124
mean normalized intensity: Homo sapiens chorionic somatomammotropin hormone 2 (CSH2), transcript variant 4, mRNA. [1]: 0.8122
mean normalized intensity: Homo sapiens galanin receptor 1 (GALR1), mRNA. [1]: 2.507
mean normalized intensity: Homo sapiens growth hormone 2 (GH2), transcript variant 2, mRNA. [1]: 0.9226
mean normalized intensity: Homo sapiens hypothetical protein FLJ20075 (FLJ20075), mRNA. [1]: −0.3592
mean normalized intensity: Homo sapiens mRNA for SCCA2b, complete cds. [1]: 3.329
mean normalized intensity: Homo sapiens mRNA; cDNA DKFZp586P1124 (from clone DKFZp586P1124) [1]: 0.4856
mean normalized intensity: Homo sapiens methyl-CpG binding protein MBD2 (MBD2) mRNA, complete cds. [1]: 0.4906
mean normalized intensity: Homo sapiens tachykinin, precursor 1 (TAC1), transcript variant beta, mRNA. [1]: 2.773
mean normalized intensity: Homo sapiens testis expressed sequence 14 (TEX14), mRNA. [1]: 3.512
mean normalized intensity: Homo sapiens, Similar to LIM homeobox protein 8, clone IMAGE: 4839343, mRNA. [1]: −0.06288
mean normalized intensity: Homo sapiens, Similar to cadherin 6, type 2, K-cadherin (fetal kidney), clone MGC: 1470, mRNA, complete cds. [1]: 2.547
mean normalized intensity: Homo sapiens, Similar to hypothetical protein FLJ10058, clone MGC: 34305 IMAGE: 5167647, mRNA, complete cds. [1]: 1.698
mean normalized intensity: Homo sapiens, Similar to hypothetical protein FLJ32001, clone MGC: 39559 IMAGE: 4828136, mRNA, complete cds. [1]: 0.5207
mean normalized intensity: Homo sapiens, clone IMAGE: 4067166, mRNA [1]: 0.1959
mean normalized intensity: Homo sapiens, clone IMAGE: 4828836, mRNA. [1]: 0.9729
mean normalized intensity: Homo sapiens, serine (or cysteine) proteinase inhibitor, clade B (ovalbumin), member 3, clone MGC: 12244, mRNA, complete cds. [1]: 1.969
mean normalized intensity: Human mRNA upregulated during camptothecin-induced apoptosis of U937 cells. [1]: 0.4945
mean normalized intensity: Human platelet-derived growth factor alpha-receptor (PDGFRA) mRNA, exons 13-16 [1]: 2.445
mean normalized intensity: KIAA1151 protein [1]: 0.6425
mean normalized intensity: caldesmon 1 [1]: 7.092
mean normalized intensity: nuclear receptor subfamily 1, group I, member 3 [1]: 1.779
mean normalized intensity: ESTs (DE treatment in low serum + AA on MATRIGEL, gene line r2006): 1.5857
mean normalized intensity: ESTs (DE treatment in low serum + AA on MATRIGEL, gene line r2025): 1.531
mean normalized intensity: ESTs (DE treatment in low serum + AA on MATRIGEL, gene line r2032): 0.1336
mean normalized intensity: paternally expressed 3 (DE treatment in low serum + AA on MATRIGEL, gene line r2033): 2.876
mean normalized intensity: ESTs (DE treatment in low serum + AA on MATRIGEL, gene line r2038): 3.262
mean normalized intensity: paternally expressed 3 (DE treatment in low serum + AA on MATRIGEL, gene line r2093): 2.874
mean normalized intensity: ESTs (DE treatment in low serum + AA on MATRIGEL, gene line r2134): −1.3795
mean normalized intensity: ESTs (DE treatment in low serum + AA on MATRIGEL, gene line r2148): 4.454
mean normalized intensity: DKFZP566K1924 protein [2]: 1.391
mean normalized intensity: H. sapiens mRNA for B-HLH DNA binding protein. [2]: 3.451
mean normalized intensity: Homo sapiens BCL2-interacting killer (apoptosis-inducing) (BIK), mRNA. [2]: 3.562
mean normalized intensity: Homo sapiens Charot-Leyden crystal protein (CLC), mRNA. [2]: 2.1096
mean normalized intensity: Homo sapiens HES-related repressor protein 1 HERP1 mRNA, complete cds. [2]: 2.406
mean normalized intensity: Homo sapiens HSPC156 protein (HSPC156), mRNA. [2]: 1.296
mean normalized intensity: Homo sapiens KIAA0469 gene product (KIAA0469), mRNA. [2]: 2.565
mean normalized intensity: Homo sapiens PNAS-123 mRNA, complete cds [2]: 1.847
mean normalized intensity: Homo sapiens Wilms tumor 1 (WT1), transcript variant D, mRNA. [2]: −2.435
mean normalized intensity: Homo sapiens cDNA FLJ11398 fis, clone HEMBA1000637. [2]: 1.849
mean normalized intensity: Homo sapiens cDNA: FLJ22547 fis, clone HSI00356 [2]: 2.095
mean normalized intensity: Homo sapiens cadherin 6, type 2, K-cadherin (fetal kidney) (CDH6), mRNA. [2]: −0.8763
mean normalized intensity: Homo sapiens chorionic somatomammotropin hormone 2 (CSH2), transcript variant 1, mRNA. [2]: 2.616
mean normalized intensity: Homo sapiens chorionic somatomammotropin hormone 2 (CSH2), transcript variant 4, mRNA. [2]: 2.218
mean normalized intensity: Homo sapiens galanin receptor 1 (GALR1), mRNA. [2]: −0.338
mean normalized intensity: Homo sapiens growth hormone 2 (GH2), transcript variant 2, mRNA. [2]: 1.4679
mean normalized intensity: Homo sapiens hypothetical protein FLJ20075 (FLJ20075), mRNA. [2]: −0.06528
mean normalized intensity: Homo sapiens mRNA for SCCA2b, complete cds. [2]: 0.568
mean normalized intensity: Homo sapiens mRNA; cDNA DKFZp586P1124 (from clone DKFZp586P1124) [2]: −3.094
mean normalized intensity: Homo sapiens methyl-CpG binding protein MBD2 (MBD2) mRNA, complete cds. [2]: −1.702
mean normalized intensity: Homo sapiens tachykinin, precursor 1 (TAC1), transcript variant beta, mRNA. [2]: 1.483
mean normalized intensity: Homo sapiens testis expressed sequence 14 (TEX14), mRNA. [2]: −1.3824
mean normalized intensity: Homo sapiens, Similar to LIM homeobox protein 8, clone IMAGE: 4839343, mRNA. [2]: −1.11
mean normalized intensity: Homo sapiens, Similar to cadherin 6, type 2, K-cadherin (fetal kidney), clone MGC: 1470, mRNA, complete cds. [2]: 2.134
mean normalized intensity: Homo sapiens, Similar to hypothetical protein FLJ10058, clone MGC: 34305 IMAGE: 5167647, mRNA, complete cds. [2]: 0.2156
mean normalized intensity: Homo sapiens, Similar to hypothetical protein FLJ32001, clone MGC: 39559 IMAGE: 4828136, mRNA, complete cds. [2]: 1.269
mean normalized intensity: Homo sapiens, clone IMAGE: 4067166, mRNA [2]: 0.277
mean normalized intensity: Homo sapiens, clone IMAGE: 4828836, mRNA. [2]: −1.484
mean normalized intensity: Homo sapiens, serine (or cysteine) proteinase inhibitor, clade B (ovalbumin), member 3, clone MGC: 12244, mRNA, complete cds. [2]: −1.566
mean normalized intensity: Human mRNA upregulated during camptothecin-induced apoptosis of U937 cells. [2]: −0.1892
mean normalized intensity: Human platelet-derived growth factor alpha-receptor (PDGFRA) mRNA, exons 13-16 [2]: 2.905
mean normalized intensity: KIAA1151 protein [2]: 1.009
mean normalized intensity: caldesmon 1 [2]: 5.634
mean normalized intensity: nuclear receptor subfamily 1, group I, member 3 [2]: −0.1968
mean normalized intensity: ESTs (DE treatment in low serum + AA on MEFS, gene line r2006): −1.3
mean normalized intensity: ESTs (DE treatment in low serum + AA on MEFS, gene line r2025): 1.373
mean normalized intensity: ESTs (DE treatment in low serum + AA on MEFS, gene line r2032): −1.566
mean normalized intensity: paternally expressed 3 (DE treatment in low serum + AA on MEFS, gene line r2033): −0.0118
mean normalized intensity: ESTs (DE treatment in low serum + AA on MEFS, gene line r2038): 1.5682
mean normalized intensity: paternally expressed 3 (DE treatment in low serum + AA on MEFS, gene line r2093): −3.492
mean normalized intensity: ESTs (DE treatment in low serum + AA on MEFS, gene line r2134): −0.9461
mean normalized intensity: ESTs (DE treatment in low serum + AA on MEFS, gene line r2148): 5.334
